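Five concentrations, 48 hours, 96-well plates. TGI: total growth inhibition.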
Key:
Assay in all cases: DTP human tumour cell line panel, 48 h
[1] = test system: SF-268 CNS
[2] = test system: HOP-92 NSCLC
[3] = test system: LOX IMVI melanoma
[4] = test system: OVCAR-8 ovarian
[5] = test system: OVCAR-3 ovarian
[6] = test system: MDA-N
[7] = test system: SR leukemia
[8] = test system: SNB-75 CNS
[9] = test system: DU-145 prostate
[10] = test system: T-47D breast
[11] = test system: NCI-H460 lung
[12] = test system: NCI/ADR-RES ovarian
[13] = test system: NCI-H522 lung
[14] = test system: HL-60(TB) leukemia
[15] = test system: SN12C renal
[16] = test system: BT-549 breast
[17] = test system: HCT-116 colon
[18] = test system: SNB-19 CNS
[19] = test system: KM12 colon
[20] = test system: COLO 205 colon
[21] = test system: HS 578T breast
[22] = test system: M14 melanoma
[23] = test system: HCC-2998 colon
[24] = test system: RPMI-8226 leukemia
[25] = test system: HCT-15 colon
[26] = test system: CCRF-CEM leukemia
[27] = test system: NCI-H23 lung
[28] = test system: UACC-62 melanoma
[29] = test system: MDA-MB-435
[30] = test system: SF-295 CNS
[31] = test system: SK-MEL-2 melanoma
[32] = test system: UO-31 renal
[33] = test system: SK-OV-3 ovarian
[34] = test system: HT29 colon
[35] = test system: K-562 leukemia
[36] = test system: MDA-MB-231 breast
[37] = test system: HOP-62 NSCLC
[38] = test system: SF-539 CNS
[39] = test system: NCI-H226 lung
[40] = test system: IGROV1 ovarian
[41] = test system: CAKI-1 renal
[42] = test system: SK-MEL-28 melanoma
[43] = test system: 786-0 renal
[44] = test system: OVCAR-5 ovarian
[45] = test system: U251 CNS
[46] = test system: TK-10 renal
[47] = test system: A549 NSCLC
[48] = test system: EKVX NSCLC
[49] = test system: ACHN renal
[50] = test system: RXF 393 renal
[51] = test system: UACC-257 melanoma
[52] = test system: MCF7 breast
[53] = test system: SK-MEL-5 melanoma
[54] = test system: SW-620 colon
[55] = test system: OVCAR-4 ovarian
[56] = test system: PC-3 prostate
[57] = test system: MALME-3M melanoma
[58] = test system: MOLT-4 leukemia

## O=C1OC(c2ccc(Cl)cc2)=N/C1=C\c1ccccc1
[1]
  TGI: > 100 µM
[2]
  TGI: > 100 µM
[3]
  TGI: > 100 µM
[4]
  TGI: > 100 µM
[5]
  TGI: > 100 µM
[6]
  TGI: > 100 µM
[7]
  TGI: > 100 µM
[8]
  TGI: > 100 µM
[9]
  TGI: > 100 µM
[10]
  TGI: > 100 µM
[11]
  TGI: > 100 µM
[12]
  TGI: > 100 µM
[13]
  TGI: > 100 µM
[14]
  TGI: > 100 µM
[15]
  TGI: > 100 µM
[16]
  TGI: > 100 µM
[17]
  TGI: > 100 µM
[18]
  TGI: > 100 µM
[19]
  TGI: > 100 µM
[20]
  TGI: > 100 µM
[21]
  TGI: > 100 µM
[22]
  TGI: > 100 µM
[23]
  TGI: > 100 µM
[24]
  TGI: > 100 µM
[25]
  TGI: > 100 µM
[26]
  TGI: > 100 µM
[27]
  TGI: > 100 µM
[28]
  TGI: > 100 µM
[29]
  TGI: > 100 µM
[30]
  TGI: > 100 µM
[31]
  TGI: > 100 µM
[32]
  TGI: > 100 µM
[33]
  TGI: > 100 µM
[34]
  TGI: > 100 µM
[35]
  TGI: > 100 µM
[36]
  TGI: > 100 µM
[37]
  TGI: > 100 µM
[38]
  TGI: > 100 µM
[39]
  TGI: > 100 µM
[40]
  TGI: > 100 µM
[41]
  TGI: > 100 µM
[42]
  TGI: > 100 µM
[43]
  TGI: > 100 µM
[44]
  TGI: > 100 µM
[45]
  TGI: > 100 µM
[46]
  TGI: > 100 µM
[47]
  TGI: > 100 µM
[48]
  TGI: > 100 µM
[49]
  TGI: > 100 µM
[50]
  TGI: > 100 µM
[51]
  TGI: > 100 µM
[52]
  TGI: > 100 µM
[53]
  TGI: > 100 µM
[54]
  TGI: > 100 µM
[55]
  TGI: > 100 µM
[56]
  TGI: > 100 µM

## CC[C@@H]1CSC(/C=C/C2OC3OC(C)(C)OC3C3OC(C)(C)OC23)=N1 (stereo partly drawn)
[1]
  TGI: 18.8 µM
[2]
  TGI: 19.2 µM
[3]
  TGI: 20.6 µM
[4]
  TGI: 23.8 µM
[5]
  TGI: 16.7 µM
[6]
  TGI: 21.3 µM
[7]
  TGI: 37.4 µM
[8]
  TGI: 29.6 µM
[9]
  TGI: 5.19 µM
[10]
  TGI: 16.8 µM
[11]
  TGI: 61.2 µM
[12]
  TGI: 95.7 µM
[13]
  TGI: 12.1 µM
[14]
  TGI: 5.67 µM
[57]
  TGI: 23.8 µM
[15]
  TGI: 23.9 µM
[16]
  TGI: 13.4 µM
[17]
  TGI: 14.2 µM
[18]
  TGI: 54.8 µM
[19]
  TGI: 33.3 µM
[20]
  TGI: 18 µM
[21]
  TGI: 75.2 µM
[58]
  TGI: 26.6 µM
[22]
  TGI: 22.9 µM
[23]
  TGI: 12.7 µM
[24]
  TGI: 32.5 µM
[25]
  TGI: 15.3 µM
[27]
  TGI: 23.1 µM
[28]
  TGI: 26.8 µM
[29]
  TGI: 20 µM
[30]
  TGI: 46.6 µM
[31]
  TGI: 29.8 µM
[32]
  TGI: 22.8 µM
[33]
  TGI: 91.4 µM
[34]
  TGI: 15.9 µM
[35]
  TGI: 62.4 µM
[36]
  TGI: 25.7 µM
[37]
  TGI: 59.4 µM
[38]
  TGI: 30.4 µM
[39]
  TGI: 35.9 µM
[40]
  TGI: 26 µM
[41]
  TGI: 28.6 µM
[42]
  TGI: 34.7 µM
[43]
  TGI: 15.9 µM
[44]
  TGI: 22.8 µM
[45]
  TGI: 26.4 µM
[46]
  TGI: 14.6 µM
[47]
  TGI: 49.6 µM
[48]
  TGI: 25.6 µM
[49]
  TGI: 21.2 µM
[50]
  TGI: 9.59 µM
[51]
  TGI: 26.4 µM
[52]
  TGI: 16.8 µM
[53]
  TGI: 20 µM
[54]
  TGI: 11.2 µM
[55]
  TGI: 17.7 µM
[56]
  TGI: 26 µM

— PubChem BioAssay (NCI)
